# Test results taken from US20260198495A1, “BINARY INSECTICIDE COMPOSITION AND USE THEREOF” (SHENYANG SINOCHEM AGROCHEMICALS R & D CO., LTD., priority 2022, published 2026).
# Legend:
# Type in all cases: in vivo
# Aphis craccivora nymphs = experiment: Synergism screening (Bliss) of I-72 + pyrethroid insecticides, Example 38, Table 38; conditions: for mortality at 0.15 µg/mL / mortality at 2 µg/mL / mortality at 3 µg/mL / mortality at 0.3 µg/mL / mortality at 1 µg/mL: Aphis craccivora, in Vicia faba, 48 h; for mortality at 0.15 µg/mL: read-out: Measured mortality rate (%), single pesticide, concentration 0.15 mg/L, broad bean seedling spraying; for mortality at 2 µg/mL: read-out: Measured mortality rate (%), single pesticide, concentration 2 mg/L, broad bean seedling spraying; for mortality at 3 µg/mL: read-out: Measured mortality rate (%), single pesticide, concentration 3 mg/L, broad bean seedling spraying; for Measured mortality rate (%): single pesticide, broad bean seedling spraying, 48 hours; for mortality at 0.3 µg/mL: read-out: Measured mortality rate (%), single pesticide, concentration 0.3 mg/L, broad bean seedling spraying; for mortality at 1 µg/mL: read-out: Measured mortality rate (%), single pesticide, concentration 1 mg/L, broad bean seedling spraying
# Experimental: Test target: Aphis craccivora nymphs, a sensitive strain reared indoors.
# (§1) Preparation of the pesticide solution: according to different test requirements, the test samples were accurately weighed respectively with an electronic analytical balance. The technical pesticides were dissolved in acetone, and then diluted with 0.1% Tween 80 water into a series of pesticide solutions with a certain concentration gradient according to the experimental design dosage.
# Experimental method: first, broad bean seedlings with uniform and consistent Aphis craccivora were selected, with about 30-40 insects on each seedling. Then, they were evenly sprayed with the pesticide solution in the order from low dosage to high dosage according to the experimental design, with 1.5 mL of the solution for each leaf and 3 replicates for each treatment. In addition, a blank control (CK) was set up.
# (§2) The treated test materials were placed in an observation room, and the temperature, humidity and illumination of the observation room could be adjusted as needed. The number of dead and alive insects was investigated 48 hours later, and the corrected mortality rate was calculated using the Abbott's formula.
# (§3) The synergism of the mixture was evaluated by adopting the Bliss method, as in Example 5.
# [1] = tested on: 3rd-instar larvae of Yponomeuta evonymallus (Linnaeus); experiment: Synergism screening (Bliss) of I-72 + pyrethroid insecticides, Example 37, Table 37; conditions: single pesticide, leaf dipping, 72 hours
# Experimental: Test target: 3rd-instar larvae of Yponomeuta evonymallus (Linnaeus).
# as §1
# (§4) Experimental method: Firstly, Hylotelephium spectabile leaves were selected and dipped into the prepared pesticide solutions for 10 s in the order from low dosage to high dosage according to the experimental design. After natural air-drying in the shade, they were placed in a 9-cm-diameter Petri dish with filter paper, and uniform and healthy test insects were introduced, with 10 insects for each treatment and 3 replicates for each treatment. In addition, a blank control (CK) was set up.
# as §2, with “72” for “48”
# (§5) The synergism of the mixture was evaluated by the Bliss method. According to the concept of independent joint action he proposed, Bliss believes that the theoretical mortality rate P when insecticides are used in combination can be calculated by the following formula: […]
# (§6) Pm is the measured mortality rate (%) of the target when the first active ingredient is at a concentration of m; and Pn is the measured mortality rate (%) of the target when the second active ingredient is used at a concentration of n.
# (§7) If the actual mortality rate of the target after the two active ingredients are mixed at a certain concentration is greater than theoretical mortality rate P, it is determined that the two active ingredients have a synergistic effect when used in combination at the set concentration, and otherwise, they have an antagonistic effect.
# [2] = tested on: 3rd-instar larvae of Ostrinia furnacalis Guenee; experiment: Synergism screening (Bliss) of I-72 + ecdysteroid and juvenile hormone insecticides, Example 51, Table 51; conditions: Ostrinia furnacalis, 72 h, read-out: Measured mortality rate
# Experimental: Test target: 3rd-instar larvae of Ostrinia furnacalis Guenee.
# as §1
# as §4, with “first, tender corn stems” for “Firstly, Hylotelephium spectabile leaves”, “in” for “into”, “solution” for “solutions”
# as §2, with “72” for “48”
# as §3
# [3] = tested on: 2nd-instar larvae of Plutella xylostella; experiment: Synergism screening (Bliss) of I-72 + insect attractants and insecticides, Example 49, Table 49; conditions: for Measured mortality rate: single pesticide, 72 hours
# Experimental: (§8) Test target: 2nd-instar larvae of Plutella xylostella.
# as §1
# as §4, with “first, cabbage” for “Firstly, Hylotelephium spectabile”, “in” for “into”, “solution” for “solutions”, “CK” for “(CK)”
# as §2, with “72” for “48”
# as §3
# [4] = tested on: 2nd-instar larvae of Plutella xylostella; experiment: whole plant or invertebrate; conditions: for Measured mortality rate: single pesticide, 72 hours; for mortality at 0.025 µg/mL / mortality at 0.5 µg/mL / mortality at 10 µg/mL / mortality at 0.01 µg/mL / mortality at 25 µg/mL: Plutella xylostella, 72 h, read-out: Measured mortality rate
# Experimental: as §8, §1
# as §4, with “first, cabbage” for “Firstly, Hylotelephium spectabile”, “in” for “into”, “solution” for “solutions”
# as §2, with “72” for “48”
# as §5, §6, §7
# [5] = Plutella xylostella, 72 h, read-out: Measured mortality rate
compound,measurement,setting,value
Cc1c(COC(=O)[C@@H]2[C@H](/C=C(\Cl)C(F)(F)F)C2(C)C)cccc1-c1ccccc1 (racemic) [Bifenthrin],mortality at 0.15 µg/mL,Aphis craccivora nymphs,10%
same,mortality at 2 µg/mL,Aphis craccivora nymphs,49.1%
same,mortality at 3 µg/mL,Aphis craccivora nymphs,62%
CC1(C)[C@H](C(=O)O[C@H](C#N)c2cccc(Oc3ccccc3)c2)[C@@H]1/C=C(\Cl)C(F)(F)F (racemic) [Lambda-cyhalothrin],Measured mortality rate (%),[1]; concentration 0.25 mg/L,16.1%
same,Measured mortality rate (%),[1]; concentration 2 mg/L,39.3%
same,Measured mortality rate (%),[1]; concentration 5 mg/L,53.3%
COC(C)(C)CCC[C@H](C)C/C=C/C(C)=C/C(=O)OC(C)C (racemic) [Methoprene],mortality at 0.04 µg/mL,[2],10%
same,mortality at 2 µg/mL,[2],17.9%
same,mortality at 100 µg/mL,[2],25%
CC1(C)C(C=C(Cl)Cl)C1C(=O)OC(C#N)c1cccc(Oc2ccccc2)c1 (stereo not drawn) [Alpha-cypermethrin],Measured mortality rate (%),[1]; concentration 0.5 mg/L,9.1%
same,Measured mortality rate (%),[1]; concentration 1 mg/L,19.4%
same,Measured mortality rate (%),[1]; concentration 5 mg/L,43.8%
CC1(C)C(C=C(Cl)Cl)C1C(=O)OC(C#N)c1ccc(F)c(Oc2ccccc2)c1 (stereo not drawn) [Beta-cyfluthrin],Measured mortality rate (%),[1]; concentration 0.5 mg/L,12.9%
same,Measured mortality rate (%),[1]; concentration 1 mg/L,21.4%
same,Measured mortality rate (%),[1]; concentration 5 mg/L,51.6%
CC1(C)[C@H](C=C(Cl)Cl)[C@H]1C(=O)O[C@@H](C#N)c1cccc(Oc2ccccc2)c1 [Beta-cypermethrin],Measured mortality rate (%),Aphis craccivora nymphs; concentration 0.3 mg/L,16.1%
same,Measured mortality rate (%),Aphis craccivora nymphs; concentration 1 mg/L,49.7%
CC12CCC(CC1=O)C2(C)C (stereo not shown) [Camphor],mortality at 0.002 µg/mL,[3]; [5],7.4%
same,mortality at 0.1 µg/mL,[3]; [5],9.7%
same,mortality at 5 µg/mL,[3]; [5],13.8%
O=C(NC(=O)c1ccccc1Cl)Nc1ccc(Cl)cc1 [Chlorbenzuron],Measured mortality rate,[4]; 0.01 mg/L,6.5%
same,Measured mortality rate,[4]; 0.5 mg/L,14.8%
same,Measured mortality rate,[4]; 25 mg/L,25.8%
O=C(NC(=O)c1c(F)cccc1F)Nc1cc(Cl)c(Oc2ncc(C(F)(F)F)cc2Cl)c(Cl)c1 [Chlorfluazuron],mortality at 0.025 µg/mL,[4],3.4%
same,mortality at 0.5 µg/mL,[4],10.3%
same,mortality at 10 µg/mL,[4],24.1%
CC1(C)C(C=C(Cl)Cl)C1C(=O)OC(C#N)c1ccc(F)c(Oc2ccccc2)c1 (stereo not shown) [Cyfluthrin],Measured mortality rate (%),[1]; concentration 0.5 mg/L,10.0%
same,Measured mortality rate (%),[1]; concentration 1 mg/L,18.8%
same,Measured mortality rate (%),[1]; concentration 5 mg/L,48.4%
CC1(C)C(C=C(Cl)Cl)C1C(=O)OC(C#N)c1cccc(Oc2ccccc2)c1 (stereo not shown) [Cypermethrin],mortality at 0.15 µg/mL,Aphis craccivora nymphs,13.3%
same,mortality at 2 µg/mL,Aphis craccivora nymphs,60.9%
CC1(C)[C@H](C(=O)O[C@H](C#N)c2cccc(Oc3ccccc3)c2)[C@@H]1C=C(Br)Br [Deltamethrin],mortality at 0.3 µg/mL,Aphis craccivora nymphs,17.3%
same,mortality at 1 µg/mL,Aphis craccivora nymphs,28%
same,mortality at 3 µg/mL,Aphis craccivora nymphs,61.4%
CC(C)c1cc(Oc2ccccc2)cc(C(C)C)c1NC(=S)NC(C)(C)C [Diafenthiuron],mortality at 0.025 µg/mL,[4],6.3%
same,mortality at 0.5 µg/mL,[4],13.3%
same,mortality at 10 µg/mL,[4],21.4%
O=C(NC(=O)c1c(F)cccc1F)Nc1ccc(Cl)cc1 [Diflubenzuron],mortality at 0.01 µg/mL,[4],11.1%
same,mortality at 0.5 µg/mL,[4],12.9%
same,mortality at 25 µg/mL,[4],31%
CC(C)[C@H](C(=O)O[C@H](C#N)c1cccc(Oc2ccccc2)c1)c1ccc(Cl)cc1 [Esfenvalerate],Measured mortality rate (%),[1]; concentration 0.5 mg/L,9.4%
same,Measured mortality rate (%),[1]; concentration 1 mg/L,13.8%
same,Measured mortality rate (%),[1]; concentration 5 mg/L,40.0%
CCOc1ccc(C(C)(C)COCc2cccc(Oc3ccccc3)c2)cc1 [Etofenprox],mortality at 0.15 µg/mL,Aphis craccivora nymphs,14%
same,mortality at 2 µg/mL,Aphis craccivora nymphs,49.5%
CC1(C)C(C(=O)OC(C#N)c2cccc(Oc3ccccc3)c2)C1(C)C (stereo not shown) [Fenpropathrin],Measured mortality rate (%),[1]; concentration 0.5 mg/L,13.3%
same,Measured mortality rate (%),[1]; concentration 1 mg/L,22.6%
same,Measured mortality rate (%),[1]; concentration 5 mg/L,40.7%
CC(C)C(C(=O)OC(C#N)c1cccc(Oc2ccccc2)c1)c1ccc(Cl)cc1 (stereo not shown) [Fenvalerate],mortality at 0.3 µg/mL,Aphis craccivora nymphs,14.7%
same,mortality at 1 µg/mL,Aphis craccivora nymphs,29%
same,mortality at 3 µg/mL,Aphis craccivora nymphs,51.1%
N#Cc1nn(-c2c(Cl)cc(C(F)(F)F)cc2Cl)c(N)c1[S+]([O-])C(F)(F)F (stereo not shown) [Fipronil],mortality at 0.01 µg/mL,[3]; [5],6.7%
same,mortality at 0.1 µg/mL,[3]; [5],16.7%
same,mortality at 1 µg/mL,[3]; [5],27.6%
O=C(NC(=O)c1c(F)cccc1F)Nc1ccc(Oc2ccc(C(F)(F)F)cc2Cl)cc1F [Flufenoxuron],mortality at 0.01 µg/mL,[4],9.7%
same,mortality at 0.5 µg/mL,[4],10.7%
same,mortality at 25 µg/mL,[4],27.6%
CON=CNC(=O)c1ccc(C2=NOC(c3cc(Cl)cc(Cl)c3)(C(F)(F)F)C2)cc1C (stereo not shown) [Fluxametamide],Measured mortality rate,[3]; 0.01 mg/L,6.9%
same,Measured mortality rate,[3]; 0.1 mg/L,48.4%
same,Measured mortality rate,[3]; 1 mg/L,75.9%
CC1(C)[C@H](C(=O)O[C@H](C#N)c2cccc(Oc3ccccc3)c2)[C@@H]1/C=C(\Cl)C(F)(F)F [Gamma-cyhalothrin],Measured mortality rate (%),[1]; concentration 0.1 mg/L,6.9%
same,Measured mortality rate (%),[1]; concentration 5 mg/L,48.3%
O=C(NC(=O)c1c(F)cccc1F)Nc1cc(Cl)c(OC(F)(F)C(F)F)c(Cl)c1 [Hexaflumuron],mortality at 0.025 µg/mL,[4],6.7%
same,mortality at 0.5 µg/mL,[4],13.8%
same,mortality at 10 µg/mL,[4],22.6%
CCN1OCC(NC(=O)c2ccc(C3=NOC(c4cc(Cl)c(F)c(Cl)c4)(C(F)(F)F)C3)cc2C)C1=O (stereo not shown) [Isocycloseram],Measured mortality rate,[3]; 0.01 mg/L,17.9%
same,Measured mortality rate,[3]; 0.1 mg/L,71.9%
same,Measured mortality rate,[3]; 1 mg/L,80.0%
O=C(NC(=O)c1c(F)cccc1F)Nc1cc(Cl)c(OC(F)(F)C(F)C(F)(F)F)cc1Cl (stereo not shown) [Lufenuron],mortality at 0.025 µg/mL,[4],7.4%
same,mortality at 0.5 µg/mL,[4],12.5%
same,mortality at 10 µg/mL,[4],20.7%
CCCCCCCC/C=C\CCCCCCCCCCCCC [Muscalure],Measured mortality rate,[3]; 0.002 mg/L,3.1%
same,Measured mortality rate,[3]; 0.1 mg/L,10.0%
same,Measured mortality rate,[3]; 5 mg/L,20.7%
CC1(C)C(C=C(Cl)Cl)C1C(=O)OCc1cccc(Oc2ccccc2)c1 (stereo not shown) [Permethrin],mortality at 0.3 µg/mL,Aphis craccivora nymphs,12%
same,mortality at 1 µg/mL,Aphis craccivora nymphs,25.3%
same,mortality at 3 µg/mL,Aphis craccivora nymphs,64.8%
FC(F)(F)c1ccc(OCCCOc2c(Cl)cc(OCC=C(Cl)Cl)cc2Cl)nc1 [Pyridalyl],mortality at 0.005 µg/mL,[3]; [5],8%
same,mortality at 0.1 µg/mL,[3]; [5],12.9%
same,mortality at 2 µg/mL,[3]; [5],24.1%
CC1(C)[C@H](C=C(Cl)Cl)[C@H]1C(=O)O[C@H](C#N)c1cccc(Oc2ccccc2)c1 [Theta-cypermethrin],Measured mortality rate (%),[1]; concentration 0.5 mg/L,10.3%
same,Measured mortality rate (%),[1]; concentration 1 mg/L,16.7%
same,Measured mortality rate (%),[1]; concentration 5 mg/L,46.4%
O=C(NC(=O)c1ccccc1Cl)Nc1ccc(OC(F)(F)F)cc1 [Triflumuron],mortality at 0.025 µg/mL,[4],6.9%
same,mortality at 0.5 µg/mL,[4],13.8%
same,mortality at 10 µg/mL,[4],17.2%
CC1(C)C(C=C(Cl)Cl)C1C(=O)OC(C#N)c1cccc(Oc2ccccc2)c1 (stereo not shown) [Zeta-cypermethrin],Measured mortality rate (%),Aphis craccivora nymphs; concentration 0.15 mg/L,17.1%
same,Measured mortality rate (%),Aphis craccivora nymphs; concentration 2 mg/L,64.5%
Pyrethrin,Measured mortality rate (%),Aphis craccivora nymphs; concentration 0.3 mg/L,15.6%
same,Measured mortality rate (%),Aphis craccivora nymphs; concentration 1 mg/L,25.6%
same,Measured mortality rate (%),Aphis craccivora nymphs; concentration 3 mg/L,63.0%
